Data on 51 molecules can be found in patent US10301317B2, “Inhibitors of ERK and methods of use” (Kura Oncology, Inc., priority 2013, dated 2019).

Experiment [1] relates to phospho-p90 RSK (RSK1 Thr359/Ser363) in A375 (Braf V600E) cells. The experiment in a line: Phospho-p90 RSK ELISA using A375 (Braf V600E) cells. It is filed as cell-based. The note with it: Homo sapiens, A-375, 2 hours compound treatment, read-out: Cellular Phospho-p90RSK IC50.
Experiment [2] concerns A375 cells. In words: Tumor cell line proliferation assay (CellTiter Glo), A375. In kind it is cell-based. Conditions: Homo sapiens, A-375, 96 h, read-out: A375 (V599E) Cell Proliferation IC50.

For `Cc1cc(-c2n[nH]c3cc4c(cc23)CN([C@@H]2CN(C(C)C)C[C@H]2c2ccccc2)C(=O)N4)ccn1` (racemic) [Example 279], the IC50 in experiment [1] and in experiment [2] was no more than 250 nM throughout.

As to `Cc1cc(-c2n[nH]c3cc4c(cc23)CN([C@@H]2CN(C)C[C@H]2c2ccc(F)cc2)C(=O)N4)cc(C)n1` (racemic) [Example 305], the IC50 in experiment [1] and in experiment [2] was no more than 250 nM in each case.

Regarding `Cc1cc(-c2n[nH]c3cc4c(cc23)CN([C@@H]2CN(C)C[C@H]2c2ccccc2F)C(=O)N4)cc(C)n1` (racemic) [Example 306], the IC50 in experiment [1] and in experiment [2] was no more than 250 nM in each case.

Consider `Cc1cc(-c2n[nH]c3cc4c(cc23)CN([C@@H]2CN(CC(F)(F)F)C[C@H]2c2ccccc2F)C(=O)N4)ccn1` (racemic) [Example 311], for which the IC50 was no more than 250 nM in experiment [1] and 250 to 1000 nM in experiment [2].

On to `COc1ccc(-c2n[nH]c3cc4c(cc23)CN(Cc2cc(F)cc(F)c2)C(=O)N4)cn1` [Example 92], for which the IC50 in experiment [1] was no more than 250 nM; in experiment [2], 250 to 1000 nM.

For `COc1ncc(-c2n[nH]c3cc4c(cc23)CN([C@@H]2CCCN(Cc3ccccc3)C2)C(=O)N4)cn1` [Example 104], the IC50 in experiment [1] and in experiment [2] was no more than 250 nM throughout.

On to `[2H]C([2H])(c1ccccc1)N1CCC[C@@H](N2Cc3cc4c(-c5ccnc(C)c5)n[nH]c4cc3NC2=O)C1` [Example 148], for which the IC50 in experiment [1] and in experiment [2] was no more than 250 nM in each case.

Take `Cc1cc(-c2n[nH]c3cc4c(cc23)CN(CCNCc2ccccc2)C(=O)N4)ccn1` [Example 149]: the IC50 in experiment [1] was 250 to 1000 nM; in experiment [2], no more than 250 nM.

Take `Cc1cc(-c2n[nH]c3cc4c(cc23)CN([C@@H]2CCCN(Cc3ccc(F)cc3)C2)C(=O)N4)ccn1` [Example 151]: the IC50 in experiment [1] is greater than 1000 nM; in experiment [2] it was no more than 250 nM.

As for `Cc1cc(-c2n[nH]c3cc4c(cc23)CN([C@@H]2CCN(CCc3ccccc3)C2)C(=O)N4)ccn1` [Example 153], the IC50 in experiment [1] and in experiment [2] was no more than 250 nM throughout.

As to `Cc1cc(-c2n[nH]c3cc4c(cc23)CN([C@@H]2CCCN(C(C)c3ccccc3)C2)C(=O)N4)ccn1` (stereo partly drawn) [Example 154], the IC50 in experiment [1] and in experiment [2] was no more than 250 nM in each case.

Regarding `Cc1cc(-c2n[nH]c3cc4c(cc23)CN([C@@H]2CCCN(Cc3cccc(Cl)c3)C2)C(=O)N4)ccn1` [Example 156], the IC50 in experiment [1] and in experiment [2] was no more than 250 nM in each case.

Consider `Cc1cc(-c2n[nH]c3cc4c(cc23)CN([C@@H]2CCCN(Cc3ccccc3Cl)C2)C(=O)N4)ccn1` [Example 158], for which the IC50 in experiment [1] and in experiment [2] was no more than 250 nM in each case.

In the case of `COc1cccc(F)c1CN1CC[C@@H](N2Cc3cc4c(-c5ccnc(C)c5)n[nH]c4cc3NC2=O)C1` [Example 162], the IC50 in experiment [1] and in experiment [2] was no more than 250 nM throughout.

On to `Cc1cc(-c2n[nH]c3cc4c(cc23)CN([C@@H]2CCCN(Cc3cccc(F)c3)C2)C(=O)N4)ccn1` [Example 184], for which the IC50 in experiment [1] and in experiment [2] was no more than 250 nM throughout.

With `Cc1cc(-c2n[nH]c3cc4c(cc23)CN([C@@H]2CCCN(Cc3cccc(F)c3F)C2)C(=O)N4)ccn1` [Example 185], the IC50 in experiment [1] and in experiment [2] was no more than 250 nM throughout.

In the case of `Cc1cc(-c2n[nH]c3cc4c(cc23)CN([C@@H]2CCCN(Cc3cc(F)ccc3F)C2)C(=O)N4)ccn1` [Example 187], the IC50 in experiment [1] and in experiment [2] was no more than 250 nM throughout.

For `Cc1cc(-c2n[nH]c3cc4c(cc23)CN(CC2CCOCC2)C(=O)N4)ccn1` [Example 211], the IC50 in experiment [1] is no more than 250 nM; in experiment [2], 250 to 1000 nM.

On to `Cc1cc(-c2n[nH]c3cc4c(cc23)CN(CC2CCCC2)C(=O)N4)ccn1` [Example 212], for which the IC50 in experiment [1] and in experiment [2] was no more than 250 nM each time.

As for `Cc1cc(-c2n[nH]c3cc4c(cc23)CN(CC2CCCCC2)C(=O)N4)ccn1` [Example 213], the IC50 in experiment [1] and in experiment [2] was no more than 250 nM each time.

On to `Cc1cc(-c2n[nH]c3cc4c(cc23)CN([C@@H]2CCCN(C(C)C(F)(F)F)C2)C(=O)N4)ccn1` (stereo partly drawn) [Example 216], for which the IC50 is no more than 250 nM in experiment [1] and 250 to 1000 nM in experiment [2].

Consider `Cc1cc(-c2n[nH]c3cc4c(cc23)CN(C2CCC(F)(F)CC2)C(=O)N4)ccn1` [Example 224], for which the IC50 was no more than 250 nM in experiment [1] and 250 to 1000 nM in experiment [2].

For the molecule `Cc1cc(-c2n[nH]c3cc4c(cc23)CN(Cc2cc(F)cc(F)c2)C(=O)N4)cc(C)n1` [Example 225], the IC50 in experiment [1] and in experiment [2] was no more than 250 nM each time.

Regarding `Cc1cc(-c2n[nH]c3cc4c(cc23)CN(Cc2ccc(F)c(Cl)c2)C(=O)N4)cc(C)n1` [Example 226], the IC50 in experiment [1] is no more than 250 nM; in experiment [2], 250 to 1000 nM.

For `Cc1cc(-c2n[nH]c3cc4c(cc23)CN(Cc2cccs2)C(=O)N4)cc(C)n1` [Example 227], the IC50 was no more than 250 nM in experiment [1] and 250 to 1000 nM in experiment [2].

In the case of `Cc1cc(-c2n[nH]c3cc4c(cc23)CN(Cc2nc(C)c(C)s2)C(=O)N4)ccn1` [Example 228], the IC50 is no more than 250 nM in experiment [1] and 250 to 1000 nM in experiment [2].

Take `Cc1cc(-c2n[nH]c3cc4c(cc23)CN(Cc2ccccc2)C(=O)N4)cc(C)n1` [Example 229]: the IC50 in experiment [1] was no more than 250 nM; in experiment [2] it was 250 to 1000 nM.

Regarding `O=C1Nc2cc3[nH]nc(-c4ccc(N5CCOCC5)nc4)c3cc2CN1Cc1cccc(Cl)c1` [Example 231], the IC50 in experiment [1] was no more than 250 nM; in experiment [2] it was 250 to 1000 nM.

Consider `Cc1cc(-c2n[nH]c3cc4c(cc23)CN(C(C)c2nccs2)C(=O)N4)ccn1` (stereo not drawn) [Example 234], for which the IC50 in experiment [1] was no more than 250 nM; in experiment [2] it was 250 to 1000 nM.

As to `Cc1cc(-c2n[nH]c3cc4c(cc23)CN([C@@H]2CCN(CC(F)(F)F)C2)C(=O)N4)cc(C)n1` [Example 237], the IC50 in experiment [1] and in experiment [2] was no more than 250 nM each time.

As to `Cc1cc(-c2n[nH]c3cc4c(cc23)CN(C2CCCC2)C(=O)N4)cc(C)n1` [Example 239], the IC50 in experiment [1] and in experiment [2] was no more than 250 nM each time.

Turning to `Cc1cc(-c2n[nH]c3cc4c(cc23)CN(Cc2cccc(C(F)(F)F)c2)C(=O)N4)ccn1` [Example 240], the IC50 in experiment [1] and in experiment [2] was no more than 250 nM in each case.

For `Cc1cc(-c2n[nH]c3cc4c(cc23)CN([C@@H]2CN(CC(F)(F)F)C[C@H]2c2ccccc2)C(=O)N4)cc(C)n1` [Example 242], the IC50 was no more than 250 nM in experiment [1] and 250 to 1000 nM in experiment [2].

Turning to `Cc1cc(-c2n[nH]c3cc4c(cc23)CN(C2CCC2)C(=O)N4)ccn1` [Example 243], the IC50 in experiment [1] and in experiment [2] was no more than 250 nM throughout.

As to `Cc1cc(-c2n[nH]c3cc4c(cc23)CN([C@@H]2CCCN(CC(F)(F)F)C2)C(=O)N4)cc(C)n1` [Example 244], the IC50 in experiment [1] and in experiment [2] was no more than 250 nM each time.

Regarding `Cc1cc(-c2n[nH]c3cc4c(cc23)CN([C@@H]2CCCN(Cc3ccc(C)s3)C2)C(=O)N4)ccn1` [Example 245], the IC50 in experiment [1] and in experiment [2] was no more than 250 nM throughout.

Take `Cc1cc(-c2n[nH]c3cc4c(cc23)CN([C@@H]2CCCN(Cc3csc(C)c3)C2)C(=O)N4)ccn1` [Example 251]: the IC50 in experiment [1] and in experiment [2] was no more than 250 nM throughout.

Regarding `Cc1cc(-c2n[nH]c3cc4c(cc23)CN([C@@H]2CCCN(Cc3ccsc3)C2)C(=O)N4)ccn1` [Example 252], the IC50 in experiment [1] and in experiment [2] was no more than 250 nM throughout.

For the molecule `Cc1cc(-c2n[nH]c3cc4c(cc23)CN([C@@H]2CCCN(Cc3cccs3)C2)C(=O)N4)ccn1` [Example 254], the IC50 in experiment [1] and in experiment [2] was no more than 250 nM throughout.

In the case of `Cc1cc(-c2n[nH]c3cc4c(cc23)CN([C@@H]2CCN(c3ccc(F)cn3)C2)C(=O)N4)ccn1` [Example 257], the results for the IC50 in experiment [1] and in experiment [2] were 250 to 1000 nM and greater than 1000 nM, respectively.

For `Cc1cc(-c2n[nH]c3cc4c(cc23)CN([C@H]2CN(Cc3ccccc3)CC(F)(F)C2)C(=O)N4)ccn1` [Example 264], the IC50 in experiment [1] and in experiment [2] was no more than 250 nM each time.

For `Cc1cc(-c2n[nH]c3cc4c(cc23)CN([C@@H]2CCN(C(C)C(F)(F)F)C2)C(=O)N4)ccn1` (stereo partly drawn) [Example 267], the IC50 in experiment [1] and in experiment [2] was no more than 250 nM each time.

Regarding `C=C(c1ccccc1)c1cc2cc3c(-c4ccnc(C)c4)n[nH]c3cc2[nH]c1=O` [Example 269], the IC50 in experiment [1] and in experiment [2] was no more than 250 nM throughout.

As for `COc1cc(-c2n[nH]c3cc4c(cc23)CN([C@@H]2CCCN(Cc3ccccc3)C2)C(=O)N4)ccn1` [Example 270], the IC50 in experiment [1] and in experiment [2] was no more than 250 nM each time.

Regarding `COc1cc(-c2n[nH]c3cc4c(cc23)CN([C@@H]2CCCN(Cc3ccc(F)cc3F)C2)C(=O)N4)ccn1` [Example 271], the IC50 in experiment [1] and in experiment [2] was no more than 250 nM in each case.

In the case of `COc1ccc(-c2n[nH]c3cc4c(cc23)CN([C@@H]2CCCN(Cc3ccccc3)C2)C(=O)N4)cn1` [Example 272], the IC50 in experiment [1] and in experiment [2] was no more than 250 nM in each case.

With `COc1ccc(-c2n[nH]c3cc4c(cc23)CN([C@@H]2CCCN(Cc3ccc(F)cc3F)C2)C(=O)N4)cn1` [Example 273], the IC50 in experiment [1] and in experiment [2] was no more than 250 nM in each case.

Regarding `Cc1ccc(-c2n[nH]c3cc4c(cc23)CN([C@@H]2CCCN(Cc3ccccc3)C2)C(=O)N4)cn1` [Example 275], the IC50 in experiment [1] and in experiment [2] was no more than 250 nM each time.

As to `COc1ncc(-c2n[nH]c3cc4c(cc23)CN([C@@H]2CCCN(Cc3ccc(F)cc3F)C2)C(=O)N4)cn1` [Example 280], the IC50 in experiment [1] and in experiment [2] was no more than 250 nM throughout.

In the case of `Cn1cc(-c2n[nH]c3cc4c(cc23)CN([C@@H]2CCCN(Cc3ccc(F)cc3F)C2)C(=O)N4)cn1` [Example 281], the IC50 in experiment [1] and in experiment [2] was no more than 250 nM in each case.

On to `Cc1ccc(-c2n[nH]c3cc4c(cc23)CN([C@@H]2CCCN(Cc3ccc(F)cc3F)C2)C(=O)N4)cn1` [Example 284], for which the IC50 in experiment [1] and in experiment [2] was no more than 250 nM in each case.
